# Where a name gives a salt, the structure may show the parent alone. Read-outs that look alike come from different tables or passages of the source.
# What was measured:
# [1] = result in words; cited from earlier work
# [2] = cited from earlier work; for biodegradability in the CBT: result in words; for biodegradation in the CBT, test prolonged: prolonged to 40 days
# [3] = cited from earlier work; for biodegradability in the ZWT: result in words
# [4] = result in words; cited from earlier work; remark: listed apart in the source
# [5] = result in words; cited from earlier work; remark: listed apart in the source
# [6] = result in words; cited from earlier work; remark: listed apart in the source
# [7] = laboratory-scale activated sludge plants; cited from earlier work
# [8] = eight German STPs; cited from earlier work
# [9] = cited from earlier work
# [10] = cited from earlier work; remark: listed apart in the source
# [11] = computer model, binding to sludge solids; cited from earlier work
# [12] = result in words; cited from earlier work; remark: listed apart in the source
# fecal coliforms = assay: sulfur dioxide treatment of effluent, Saticoy-Jose Florez Wastewater Treatment Plant; conditions: effluent undergoing sulfur dioxide treatment
# Excerpt: The destruction of odor causing microbes feeding on the water stops further CO2 production, and may be employed where the wastewater treatment plant is mandated to reduce these carbon dioxide emissions. Also, if there is significant carbon in the suspended solids, most perchlorates and chlorates will have been reduced on contact with the solids. The separation and disposal of the solids also removes most of the adsorbed microbes. Under this wastewater treatment scenario, the sulfur dioxide reduction treatment is more for acidification, inactivating of certain chemicals such as Chromium VI susceptible to acid reduction, adding sulfurous and sulfate ions, and chemical dewatering of the solids. […] This disinfection level is suitable in California for gray water land application. Consequently, the sulfur dioxide was used primarily to acid reduce pharmaceuticals, and condition the solids and separated wastewater for land application.
# [13] = wastewater treatment plant; cited from earlier work
# [14] = epilimnion of Lake Greifensee; cited from earlier work
# [15] = pilot sewage plant and anoxic biofilm reactor
structure (smiles),measurement,setting,value
"CN(CC(O)CO)C(=O)c1c(I)c(N)c(I)c(C(=O)NCC(O)CO)c1I (stereo not shown) [5-amino-N,N′bis(2,3-dihydroxypropyl)-2,4,6-triiodo-N-methyliso-phthalamide]",photodegradation,[1],faster rate of photolysis than the parent compound
O=c1[nH]cc(F)c(=O)[nH]1 [5-fluorouracil],biodegradability in the CBT,[2],not biodegradable
same,biodegradability in the ZWT,[3],not biodegradable
CN(C)CCn1nnnc1SCC1=C(C(=O)O)N2C(=O)[C@@H](NC(=O)Cc3csc(N)n3)[C@H]2SC1 [cefotiam],biodegradability in the CBT,[2],None of the test compounds met the criteria for ready biodegradability
CN/C(=N/CCSCc1nc[nH]c1C)NC#N [cimetidine],direct photolysis,[4],resistant to direct photolysis
O=C(O)c1cn(C2CC2)c2cc(N3CCNCC3)c(F)cc2c1=O [ciprofloxacin],biodegradability,[5],none of the compounds were biodegraded
same,biodegradability in the CBT,[2],None of the test compounds met the criteria for ready biodegradability
Oc1ccc(Cl)c2cccnc12 [cloxiquin],light sensitivity,[6],light sensitive
O=P1(N(CCCl)CCCl)NCCCO1 (stereo not shown) [cyclophosphamide],biodegradability in the CBT,[2],poor biodegradability
same,biodegradability in the ZWT,[3],poor biodegradability
same,biodegradability,[7],poor biodegradability
CC(=O)Nc1c(I)c(NC(C)=O)c(I)c(C(=O)O)c1I [diatrizoate],degradation or absorption during sewage treatment,[8],not significantly degraded or absorbed
O=C(O)Cc1ccccc1Nc1c(Cl)cccc1Cl [diclofenac],biological degradation,[9]; [15],partially degraded
same,degraded,[10]; entering a Swiss lake,up to 90%
same,reduction on incubation in the dark,[10]; fortified lake water,no reduction
Nc1ccn([C@@H]2O[C@H](CO)[C@@H](O)C2(F)F)c(=O)n1 [gemcitabine],"biodegradation in the CBT, test prolonged",[2],45%
same,"degree of biodegradation, test prolonged","[3]; prolonged to 40 days, test read from the sentence before",80%
CC(C)Cc1ccc(C(C)C(=O)O)cc1 (stereo not shown) [ibuprofen],biological degradation,[9]; oxic biofilm reactor,high degree of degradation
same,biological degradation,[9]; [15],partially degraded
CN(C(=O)CO)c1c(I)c(C(=O)NCC(O)CO)c(I)c(C(=O)NCC(O)CO)c1I (stereo not shown) [iomeprol],degradation or absorption during sewage treatment,[8],not significantly degraded or absorbed
C[C@H](O)C(=O)Nc1c(I)c(C(=O)NC(CO)CO)c(I)c(C(=O)NC(CO)CO)c1I [iopamidol],degradation or absorption during sewage treatment,[8],not significantly degraded or absorbed
COCC(=O)Nc1c(I)c(C(=O)NCC(O)CO)c(I)c(C(=O)N(C)CC(O)CO)c1I (stereo not shown) [iopromide],photodegradation,[1],amenable to photodegradation
same,degradation or absorption during sewage treatment,[8],not significantly degraded or absorbed
Cc1cccc(Nc2ccccc2C(=O)O)c1C [mefenamic acid],predicted sorption potential,[11],high capacity to bind to solids
C[C@@H](O)[C@H]1C(=O)N2C(C(=O)O)=C(S[C@@H]3CN[C@H](C(=O)N(C)C)C3)[C@H](C)[C@H]12 [meropenem],biodegradability in the CBT,[2],None of the test compounds met the criteria for ready biodegradability
CN(C/C=C/c1ccccc1)Cc1cccc2ccccc12 [naftifine],light sensitivity,[6],light sensitive
CC(=O)Nc1ccc(O)cc1 [paracetamol],biodegradability,[12],biodegradable
CC1(C)S[C@@H]2[C@H](NC(=O)Cc3ccccc3)C(=O)N2[C@H]1C(=O)O [penicillin G],"biodegradation in the CBT, test prolonged",[2],35%
same,biodegradation in the CBT (removed / biodegraded),"[2]; regular test period, 28 days printed for penicillin G",approximately 27%
same,biodegradability in the CBT,[2],None of the test compounds met the criteria for ready biodegradability
C=C[C@H]1C[N@@]2CC[C@H]1C[C@H]2[C@H](O)c1ccnc2ccc(OC)cc12 [quinine sulfate],predicted sorption potential,[11],high capacity to bind to solids
O=C(O)c1ccccc1O [salicylic acid],biodegradability,[12],biodegradable
S=C1SCN(Cc2ccccc2)CN1Cc1ccccc1 [sulbentine],light sensitivity,[6],light sensitive
O=S=O [sulfur dioxide],fecal coliforms in treated effluent,fecal coliforms,< 2 MPN
Cc1cccc(N(C)C(=S)Oc2ccc3ccccc3c2)c1 [tolnaftate],light sensitivity,[6],light sensitive
"Oc1cc(Cl)ccc1Oc1ccc(Cl)cc1Cl [triclosan, 2,4,4′-trichloro2′-hydroxyphenyl ether]",fate: biological degradation,[13],79%
same,overall elimination rate due to photochemical degradation,[14],0.03 day⁻¹

# Reference: patent publication US8580122B2, “Hybrid chemical/mechanical method and apparatus for inactivating and removing pharmaceuticals and other contaminants from water” (priority 2004, dated 2013)
